Source: publication PMC8496750, “Identification of the organic anion transporting polypeptides responsible for the hepatic uptake of the major metabolite of epyrifenacil, S‐3100‐CA, in mice” (Pharmacology Research & Perspectives, 2021)

Assays:
[1] = biological target: T1, rat Oatp1a4 (Rattus norvegicus, UniProt O35913); experiment: Uptake assay for radiolabeled substrates, rat Oatp1a4 expressing 293FT cells; conditions: 10‐min incubation
T1 sequence (O35913 1-661): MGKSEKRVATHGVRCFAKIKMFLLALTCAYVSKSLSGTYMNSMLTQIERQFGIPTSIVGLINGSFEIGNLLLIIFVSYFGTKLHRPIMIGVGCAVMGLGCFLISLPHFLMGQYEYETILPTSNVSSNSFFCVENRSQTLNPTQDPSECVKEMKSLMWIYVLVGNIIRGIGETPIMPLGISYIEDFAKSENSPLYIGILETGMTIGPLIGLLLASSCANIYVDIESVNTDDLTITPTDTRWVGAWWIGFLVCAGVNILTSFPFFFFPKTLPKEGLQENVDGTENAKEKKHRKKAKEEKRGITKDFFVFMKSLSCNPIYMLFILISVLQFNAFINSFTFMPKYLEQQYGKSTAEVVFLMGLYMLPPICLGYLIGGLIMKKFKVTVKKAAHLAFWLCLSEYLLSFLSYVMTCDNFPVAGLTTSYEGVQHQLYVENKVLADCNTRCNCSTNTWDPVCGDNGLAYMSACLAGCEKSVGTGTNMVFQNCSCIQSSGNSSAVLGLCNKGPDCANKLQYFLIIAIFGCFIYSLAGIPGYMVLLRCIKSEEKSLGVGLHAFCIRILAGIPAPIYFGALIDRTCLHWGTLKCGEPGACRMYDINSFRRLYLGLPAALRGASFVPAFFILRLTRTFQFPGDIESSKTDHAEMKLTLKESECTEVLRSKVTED
Experimental: (§1) 293FT cells were purchased from Thermo Fisher Scientific, Inc.. The cells were grown in Dulbecco's modified Eagle medium (supplemented with 4.5 g/L glucose and 2 mM L‐glutamine) at 37°C, 5% CO2, and 95% humidity. The cells were passaged 3 times per week by harvesting cells using trypsin and plating at a density of 1.0 × 10^4 cells/cm^2 in a 10 cm cell culture plate for maintenance culture. The 293FT cells were detached using trypsin and re‐seeded at a density of 2.5 × 10^4 cells/cm^2 in BioCoat™ Collagen I 6‐well plates (Corning Inc.) for transfection and then treated with 1.2 μg of plasmid vector and 3.2 μl of Lipofectamine™ 2000 Transfection Reagent (Thermo Fisher Scientific, Inc.) according to the manufacturer's instructions. After a 3‐h treatment, the transfection medium was replaced with a fresh cell culture medium and incubated at 37°C with 95% humidity and 5% CO2 until ready for the assay.
(§2) Transport experiments were conducted approximately 24 h post‐transfection. The experiments were initiated by aspirating culture medium and addition of pre‐warmed radiolabeled substrate solution (final 1.0% of acetonitrile or 0.9% of ethanol in phosphate‐buffered saline (PBS[−])) to each well. After a 10‐min incubation, cells were washed twice with 1 ml of ice‐cold PBS(−) and lysed with 700 μl of 1.0 M NaOH for 3 h or more at room temperature. The lysate was transferred to a 1.5‐ml tube, and neutralized with 350 μl of 2.0 M HCl and 350 μl of 2.0% sodium dodecyl sulfate (SDS) solution. From the lysate, 1.0 ml was transferred to a vial containing 10 ml of Emulsifier Scintillator Plus to measure the radioactivity in the LSC. The protein concentration of the cell lysate was also measured using a Pierce™ BCA Protein Assay Kit (Thermo Fisher Scientific, Inc.), which was used to normalize, according to the cell number, the radioactivity in the cell lysate extract. The protein assay was performed in duplicate. Each sample type was assayed in triplicate wells, and each run was performed twice. When the difference in mean uptake between OATP expressing cells and mock cells was more than 2 times, the OATP was judged to be involved in transportation of the substrate. […] Each sample type was assayed in triplicate wells.

[2] = biological target: T2, rat Oatp1b2 (Rattus norvegicus, UniProt Q9QZX8); experiment: Uptake assay for radiolabeled substrates, rat Oatp1b2 expressing 293FT cells; conditions: 10‐min incubation
T2 sequence (Q9QZX8 1-687): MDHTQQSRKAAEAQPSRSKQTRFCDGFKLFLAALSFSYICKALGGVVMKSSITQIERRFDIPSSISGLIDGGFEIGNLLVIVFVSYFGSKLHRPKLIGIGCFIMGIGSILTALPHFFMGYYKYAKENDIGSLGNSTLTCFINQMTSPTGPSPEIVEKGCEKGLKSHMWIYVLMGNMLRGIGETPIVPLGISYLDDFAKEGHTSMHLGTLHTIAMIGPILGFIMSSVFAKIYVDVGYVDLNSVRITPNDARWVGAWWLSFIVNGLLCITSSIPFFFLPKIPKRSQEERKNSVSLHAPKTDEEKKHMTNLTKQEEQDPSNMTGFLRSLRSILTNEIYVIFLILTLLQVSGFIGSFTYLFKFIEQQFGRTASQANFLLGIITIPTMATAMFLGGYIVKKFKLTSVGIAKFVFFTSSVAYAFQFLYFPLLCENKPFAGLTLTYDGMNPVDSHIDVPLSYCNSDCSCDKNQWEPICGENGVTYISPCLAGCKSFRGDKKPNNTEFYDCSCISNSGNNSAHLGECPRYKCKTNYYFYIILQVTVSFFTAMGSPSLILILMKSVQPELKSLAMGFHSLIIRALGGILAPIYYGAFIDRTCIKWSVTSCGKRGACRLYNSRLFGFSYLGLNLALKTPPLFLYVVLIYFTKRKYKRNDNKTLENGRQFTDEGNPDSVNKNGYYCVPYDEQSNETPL
Experimental: as §1, §2

[3] = biological target: T3, rat Oatp1a1 (Rattus norvegicus, UniProt P46720); experiment: Uptake assay for radiolabeled substrates, rat Oatp1a1 expressing 293FT cells; type: in vitro ADME; conditions: for Ratio of uptake amount relative to the uptake into mock cells: 10‐min incubation
T3 construct: expressed in transfected cells; host or cells: 293FT cells
T3 sequence (P46720 1-670): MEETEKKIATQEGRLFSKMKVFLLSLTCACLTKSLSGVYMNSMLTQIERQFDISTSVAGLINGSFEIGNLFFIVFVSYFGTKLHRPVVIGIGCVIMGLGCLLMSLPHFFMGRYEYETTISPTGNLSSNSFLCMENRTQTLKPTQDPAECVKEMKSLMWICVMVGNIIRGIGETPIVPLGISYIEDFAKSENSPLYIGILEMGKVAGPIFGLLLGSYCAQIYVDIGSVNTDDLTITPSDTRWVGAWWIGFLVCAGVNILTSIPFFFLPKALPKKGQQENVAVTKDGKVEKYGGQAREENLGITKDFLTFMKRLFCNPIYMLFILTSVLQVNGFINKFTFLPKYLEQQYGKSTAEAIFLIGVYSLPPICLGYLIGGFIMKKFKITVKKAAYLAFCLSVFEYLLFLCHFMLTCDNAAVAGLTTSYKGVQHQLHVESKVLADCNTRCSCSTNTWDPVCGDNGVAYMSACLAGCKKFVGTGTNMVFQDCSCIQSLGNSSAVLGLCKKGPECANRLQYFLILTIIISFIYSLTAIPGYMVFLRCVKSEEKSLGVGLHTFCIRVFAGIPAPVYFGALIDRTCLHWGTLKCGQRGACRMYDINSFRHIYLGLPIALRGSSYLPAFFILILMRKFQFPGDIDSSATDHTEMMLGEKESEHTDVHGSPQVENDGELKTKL
Experimental: as §1, §2

Compound	Ratio of uptake amount relative to the uptake into mock cells ([1]; Run_1)	Ratio of uptake amount relative to the uptake into mock cells ([1]; Run_2)	Ratio of uptake amount relative to the uptake into mock cells ([2]; Run_1)	Ratio of uptake amount relative to the uptake into mock cells ([2]; Run_2)	Ratio of uptake amount relative to the uptake into mock cells ([3]; Run_1)	Ratio of uptake amount relative to the uptake into mock cells ([3]; Run_2)	Uptake, times higher than in mock cells [3]
C[C@]12CC[C@@H]3c4ccc(OS(=O)(=O)O)cc4CC[C@H]3[C@@H]1CCC2=O [E3S, Estrone 3‐sulfate]	2.2	1.4	10.0	4.7	28.6	13.6	–
C[C@]12CC[C@@H]3c4ccc(O)cc4CC[C@H]3[C@@H]1CC[C@@H]2O[C@@H]1O[C@H](C(=O)O)[C@@H](O)[C@H](O)[C@H]1O [E217βG, Estradiol 17β‐D‐glucuronide]	6.1	10.4	27.4	43.2	59.1	65.4	> 50 times
Cn1c(C(F)(F)F)cc(=O)n(-c2cc(Oc3cccnc3OCC(=O)O)c(Cl)cc2F)c1=O [S‐3100‐CA]	5.0	4.1	6.6	8.4	11.7	8.7	–
